Assay [1] concerns middle cerebral artery ischemia-reperfusion model. Kind of assay: Cerebroprotective action in middle cerebral artery ischemia-reperfusion model. The class given is in vivo, rat. As for the experimental part:
CD(SD)IGS male rats (Japan Charles river Kabushiki kaisha, Hino farm, room No. 22, specific product) (8 rats per one group) having body weight 270 to 350 g were anesthetized by 2% isoflurane (mixed bas comprising of 70% N2O (laughter gas) and 30% O2) to immobilize, and then the rats were put on warming plate to keep the rectal and brain temperature 37 to 38° C. After that, to observe the stability in the examination, cannula which was made by polyethylene (PE-50, Becton Dickinson) was inserted and left in caudal artery of said animal, and this made blood drawing and blood pressure determining to monitor the biochemical parameter such as blood sugar level, hematocrit, CO2 concentration, oxygen partial pressure, pH, blood pressure and etc. In addition, cerebral blood flow in cortex was determined by laser doppler fluorometry (Neuroscience.inc: OMEGA FLOW (FLO-C1)), putting the detection site directly on cranium on the point left 4 mm from bregma. Left neck of such animal was incised, and from internal and external carotid fork of common carotid artery to upstream of internal carotid, nylon surgical thread (length 16 mm, diameter 0.2 to 0.3 mm, with silicon coating on its tip 3 mm) was passed and left, middle cerebral artery was obstructed for 2 hours. After that, the thread was removed to release the middle cerebral artery, and blood was reperfused for 21 hours. To each animals, 3.0 mg/kg of edaravone (control) and 5.58 mg/kg of TM-2002 were respectively administered twice by cannula which is left in caudal artery 5 minutes and 5 hours after middle cerebral artery occlusion. After said operation, the brain was removed from said animal, and after preparing 7 brain slices with 2 mm thickness, to TTC stain (0.8 g of 2,3,5-triphenyltetrazolium chloride (Sigma) dissolved in 40 ml of saline) were soaked at 37° C. for 15 minutes to stain, the area of infarction and fixed by 10% neutral formalin liquid to prepare specimen. Such specimens were created the image by CCD camera respectively, and analysed according to method of Swanson et al. (J Cereb Blood Flow Metab 10:290-293; 1994). […] Furthermore, function recovering was estimated before and after the operation by rotor rod test that estimates how much they can walk on rotating rotor.

Assay [2] has as its system Thy-1 nephritis model rat. Kind of assay: Renal protective effect on Thy-1 nephritis model rat. The note with it: 50 mg/kg twice daily by sonde, 5 days. The class given is in vivo. As for the experimental part:
1.2 mg/kg of OX-7, anti Thy-1 antibody, was administered to wistar rat (male, body weight 150 g, 6 weeks aged) in caudal vein to prepare typical glomerulonephritis model with mesangial nephritis. After the administration of anti Thy-1 antibody, test compound (TM-2002, 50 mg/kg body weight, twice a daily) was suspended in 0.5% carboxymethylcellulose, was coercively administered 5 days continuously using sonde, on sixth day sampled, kidney was obtained, and analysed pathologically (count the number of glomerular cells). In particular, cells were stained by PAS according to conventional method, the stained image was captured by 3CCD camera (Olympus), and then analyzed using softwares, Image Graver PCI (FUJI shashin film) and Mac Aspect (Mitani kabushiki kaisha). Also, biochemical analysis of blood and urine was carried out (contract clinical analysis organization: SRL).

For another assay, the system named is GRP78. Kind of assay: ER stress inducing molecule expression in RIN-5F cells, western blot, GRP78. The class given is cell-based, rat. The following applies: TM-2002 200 μM, 50 μM and tunicamycin co-added. How it is done: Rat pancreatic β cell line (RIN-5F) was seeded in 6 well culture plate to 1.0×10^5 cells/well, and after 24 hours, TM-2002 in DMSO (200 mM, 50 mM) were added to be final concentration 200 μM, 50 μM. After another 1 hour, 0.2 μl of tunicamycin (Sigma) in methanol(1 mg/ml) was added. After culturing 8 hours, the cells were washed 2 ml of PBS(+) twice, and the cells were dissolved in 100 μl of lysate (50 mM Tris-HCl (pH 7.5), 150 mM NaCl, 100 mM NaF, 100 mM sodium phosphate (pH 7.4), 2 mM Na3VO4, 0.1% protease inhibitor cocktail (Sigma), 1% Triton X-100). To remove the insoluble fraction of this lysate, centrifuged at 12,000×g for 10 minutes and obtained the supernatant to give cell extract. The extract was quantified its protein concentration using DC protein assay kit (Bio Rad), and each samples (1 μg) was electrophoresed by SDS-PAGE and transferred to PVDF membrane. The membrane was blocked with 5% skimmed milk/0.1% Tween20-TBS for 1 hour at room temperature, and reacted with anti-ORP150 antibody in 5% skimmed milk/0.1% Tween20-TBS (2000 folds: specific antibody), anti-GRP78 antibody (Santa Cruz) in 5% skimmed milk/0.1% Tween20-TBS (100 folds) and anti-actin antibody (Sigma) in 5% skimmed milk/0.1% Tween20-TBS (200 folds) for 2 hours. […] The detected signal was analyzed by Lane analyzer (ATTO) and calculated the signal strength. […]
(In general: Immunoblotting shows a protein as a band on a membrane.)

Consider `Cc1ncc2c(c1O)C(c1c(C)nn(-c3ccccc3)c1O)OC2` (stereo not drawn) [compound 68, 1-(5-hydroxy-3-methyl-1-phenyl-1H-pyrazol-4-yl)-6-methyl-1,3-dihydro-furo[3,4-c]pyridin-7-ol], for which the cerebral infarction nest result in assay [1] (2 hours occlusion, 21 hours reperfusion, edaravone 3.0 mg/kg, TM-2002 5.58 mg/kg, twice (5 minutes and 5 hours after occlusion), vs excipient) is “significantly reduced”. The “improvement for nervous condition and recovering the function” value in assay [1] (compared to excipient single administration) is recorded as “remarkably shown”. In addition, in assay [2] (sampled on sixth day), the BUN value result is “improved” and the urinary protein entry was “improved”. In assay [2] (p<0.0001), the “number of glomerular cells” value is recorded as “significantly suppressed”. Further, the “hyperexpression of GRP78” value in the assay on GRP78 is reported as “suppressed”.

These data come from patent US7645882B2, “Inhibitor of protein modification products formation” (priority 2003, dated 2010).
